# Data reported in USRE39616E1, “Aminoindan derivatives” (priority 1996, dated 2007).
# pIC50: −log10 of the molar value. Where two headings read alike, the source gives them in different places.
# What was measured:
# whole brain AChE = molecular target: T1, whole brain AChE (Mus musculus, UniProt P21836); conditions: for AChE Inhibition Ex vivo ED50 (AC): mice, whole brain, at peak of activity; for AChE Inhibition Time to peak activity t / AChE Inhibition Time to return to 50% of peak t: mouse, in vivo
# T1 sequence (P21836 32-614): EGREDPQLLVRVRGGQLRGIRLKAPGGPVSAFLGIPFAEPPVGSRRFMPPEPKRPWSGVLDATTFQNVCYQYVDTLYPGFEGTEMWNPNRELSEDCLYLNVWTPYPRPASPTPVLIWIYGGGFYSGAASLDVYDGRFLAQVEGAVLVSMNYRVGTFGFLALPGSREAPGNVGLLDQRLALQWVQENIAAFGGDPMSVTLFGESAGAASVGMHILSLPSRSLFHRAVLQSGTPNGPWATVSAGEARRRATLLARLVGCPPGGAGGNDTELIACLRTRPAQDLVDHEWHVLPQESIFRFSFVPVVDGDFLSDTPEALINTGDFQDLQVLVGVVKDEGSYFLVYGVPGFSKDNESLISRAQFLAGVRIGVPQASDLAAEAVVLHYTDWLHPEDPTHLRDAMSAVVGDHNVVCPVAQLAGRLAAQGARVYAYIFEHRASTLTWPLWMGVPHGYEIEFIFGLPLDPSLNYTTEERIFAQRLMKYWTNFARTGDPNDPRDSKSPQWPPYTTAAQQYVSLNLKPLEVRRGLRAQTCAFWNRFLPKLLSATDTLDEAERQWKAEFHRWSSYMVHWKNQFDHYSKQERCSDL
# Experimental: Test drugs or saline were administered sub-cutaneously to male mice (Sabra strain, 28-35 g). […] The mice were sacrificed 15, 30, 50, 70, 90, 120 or 180 minutes after drug administration, the brains rapidly removed (minus cerebellum), weighed and homogenized in 0.1 M phosphate buffer, pH 8.0, containing Triton (1 mg/100 g tissue) and centrifuged to remove cell debris. Aliquots (25 μl) of the supernatant were then incubated with acetylthiocholine and DTNB. AChE activity was measured as described above. The % inhibition of whole brain AChE by each dose of drug was calculated by comparison with enzyme activity from 3 saline treated control mice run at the same time.
# MAO-B [1] = molecular target: T2, MAO-B (Rattus norvegicus, UniProt P19643); assay: Inhibition of MAO activity in vitro, PEA as substrate; format: biochemical; design: The MAO enzyme source was a homogenate of rat brain in 0.3M sucrose; from tissue; host or cells: rat brain homogenate, 600 g supernatant
# T2 sequence (P19643 1-520): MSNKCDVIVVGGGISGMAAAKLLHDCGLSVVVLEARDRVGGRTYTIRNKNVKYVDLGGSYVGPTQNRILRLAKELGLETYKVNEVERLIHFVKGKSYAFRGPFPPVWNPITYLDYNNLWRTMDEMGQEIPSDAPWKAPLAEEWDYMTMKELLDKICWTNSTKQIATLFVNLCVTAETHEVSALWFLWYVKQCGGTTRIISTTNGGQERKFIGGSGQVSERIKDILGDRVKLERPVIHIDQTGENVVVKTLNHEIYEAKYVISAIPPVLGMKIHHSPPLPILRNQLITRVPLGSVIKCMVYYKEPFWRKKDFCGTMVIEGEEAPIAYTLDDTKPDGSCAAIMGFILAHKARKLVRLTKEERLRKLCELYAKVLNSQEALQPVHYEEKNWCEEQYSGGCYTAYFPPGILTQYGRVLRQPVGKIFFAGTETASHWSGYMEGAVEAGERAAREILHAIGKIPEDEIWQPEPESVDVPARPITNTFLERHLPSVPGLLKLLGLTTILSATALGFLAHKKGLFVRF
# Experimental: (§1) Substrate concentrations used were 50 μM (PEA) and 1 mM (5-HT).
# MAO-B [2] = molecular target: T3, MAO-B (Mus musculus, UniProt Q8BW75); assay: Inhibition of MAO activity ex vivo (brain); format: in vivo, mice; conditions: mice, brain tissue
# T3 construct: from tissue; host or cells: mouse brain
# T3 sequence (Q8BW75 1-520): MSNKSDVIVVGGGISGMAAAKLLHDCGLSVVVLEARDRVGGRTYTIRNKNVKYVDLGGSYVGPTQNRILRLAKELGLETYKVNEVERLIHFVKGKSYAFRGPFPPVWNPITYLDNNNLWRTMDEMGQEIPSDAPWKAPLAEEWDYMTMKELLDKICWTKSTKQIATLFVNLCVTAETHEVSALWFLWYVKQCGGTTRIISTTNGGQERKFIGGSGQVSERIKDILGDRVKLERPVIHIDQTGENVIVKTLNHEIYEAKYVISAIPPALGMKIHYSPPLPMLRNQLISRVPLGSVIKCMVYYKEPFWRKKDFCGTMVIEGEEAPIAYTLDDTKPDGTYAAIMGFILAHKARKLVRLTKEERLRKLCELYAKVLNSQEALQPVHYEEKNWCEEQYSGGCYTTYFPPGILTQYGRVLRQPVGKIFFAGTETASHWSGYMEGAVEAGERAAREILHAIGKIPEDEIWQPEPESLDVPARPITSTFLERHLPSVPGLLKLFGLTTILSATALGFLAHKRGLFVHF
# Experimental: as §1
# (§2) Male Sabra mice, weighing 45-50 g were injected with test compound solutions (prepared in 0.9% saline). Each dose was administered to two or three mice. The mice were sacrificed two hours after drug administration or at a time corresponding to the peak AChE inhibition time (see Table 11). The brain and liver were rapidly dissected and stored in appropriate vials on ice. The tissues were weighed, diluted to ½ in sucrose 0.3M and stored at −20° C. before performance of the MAO assay described above. The results given in Table 11 relate to measurements made on brain tissue only.
# MAO-A [3] = molecular target: T4, MAO-A (Mus musculus, UniProt Q64133); assay: Inhibition of MAO activity ex vivo (brain); format: in vivo, mice; conditions: mice, brain tissue
# T4 construct: from tissue; host or cells: mouse brain
# T4 sequence (Q64133 1-526): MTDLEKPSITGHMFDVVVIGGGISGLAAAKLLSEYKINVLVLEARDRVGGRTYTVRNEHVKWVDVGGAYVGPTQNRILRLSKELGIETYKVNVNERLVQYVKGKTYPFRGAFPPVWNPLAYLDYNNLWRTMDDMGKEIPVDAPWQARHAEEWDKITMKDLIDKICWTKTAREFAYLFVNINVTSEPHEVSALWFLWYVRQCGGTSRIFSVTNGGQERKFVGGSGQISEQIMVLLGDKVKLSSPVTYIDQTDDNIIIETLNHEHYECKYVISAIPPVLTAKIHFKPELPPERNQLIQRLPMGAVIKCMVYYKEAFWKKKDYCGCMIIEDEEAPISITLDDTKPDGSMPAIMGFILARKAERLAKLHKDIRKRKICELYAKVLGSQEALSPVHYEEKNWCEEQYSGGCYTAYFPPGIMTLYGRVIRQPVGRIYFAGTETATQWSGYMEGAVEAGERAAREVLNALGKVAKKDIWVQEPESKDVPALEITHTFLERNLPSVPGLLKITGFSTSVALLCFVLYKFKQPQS
# Experimental: as §1, §2
# [4] = molecular target: T5, Human erythrocyte acetylcholinesterase (Homo sapiens, UniProt P22303); assay: biochemical; format: biochemical
# T5 construct: Human erythrocyte acetylcholinesterase (type XIII, Sigma Israel); purchased Sigma Israel type XIII; host or cells: human erythrocytes
# Experimental: Human erythrocyte acetylcholinesterase (type XIII, Sigma Israel), was prepared in a stock solution of 1 U/ml, containing Triton (1%) and bovine serum albumin (0.05%) in phosphate buffer (pH 8). The enzyme (0.05U) was incubated with 3-5 different concentrations of test compound (in triplicate) for periods of from 15 to 60 minutes at 37° C. […] The percentage inhibition of AChE by each concentration of drug is calculated by comparison with that of enzyme in the absence of drug.
# MAO-A [5] = molecular target: T6, MAO-A (Rattus norvegicus, UniProt P21396); assay: Inhibition of MAO activity in vitro, 5-HT as substrate; format: biochemical; design: The MAO enzyme source was a homogenate of rat brain in 0.3M sucrose; from tissue; host or cells: rat brain homogenate, 600 g supernatant; conditions: 5-HT substrate
# T6 sequence (P21396 1-526): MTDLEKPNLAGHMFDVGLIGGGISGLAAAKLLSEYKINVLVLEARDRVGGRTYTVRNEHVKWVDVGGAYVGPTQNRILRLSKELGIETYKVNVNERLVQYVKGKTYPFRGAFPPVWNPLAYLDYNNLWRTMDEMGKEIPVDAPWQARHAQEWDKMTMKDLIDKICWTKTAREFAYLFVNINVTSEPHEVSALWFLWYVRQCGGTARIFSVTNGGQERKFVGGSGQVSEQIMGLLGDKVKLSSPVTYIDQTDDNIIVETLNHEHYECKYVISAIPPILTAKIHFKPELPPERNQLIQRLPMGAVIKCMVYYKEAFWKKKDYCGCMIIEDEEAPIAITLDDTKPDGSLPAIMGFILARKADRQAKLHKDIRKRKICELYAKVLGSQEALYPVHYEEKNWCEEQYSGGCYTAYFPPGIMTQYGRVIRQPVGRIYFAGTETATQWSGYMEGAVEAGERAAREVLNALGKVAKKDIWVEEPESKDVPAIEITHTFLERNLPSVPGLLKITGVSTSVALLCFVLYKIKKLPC
# Experimental: as §1
# [6] = rat brain homogenate, read-out: MAO-B Inhibition In vitro IC50
# [7] = rat brain homogenate, read-out: MAO-A Inhibition In vitro IC50
# [8] = MAO-B Inhibition In vitro IC50, rat brain homogenate
# [9] = MAO-A Inhibition In vitro IC50, rat brain homogenate
# Experimental for mice: Therapeutic Ratio was calculated as LD50 divided by ED50 of ex vivo acetylcholine esterase inhibition.
# T5 sequence (P22303 32-617 isoform P22303-2 limits assumed): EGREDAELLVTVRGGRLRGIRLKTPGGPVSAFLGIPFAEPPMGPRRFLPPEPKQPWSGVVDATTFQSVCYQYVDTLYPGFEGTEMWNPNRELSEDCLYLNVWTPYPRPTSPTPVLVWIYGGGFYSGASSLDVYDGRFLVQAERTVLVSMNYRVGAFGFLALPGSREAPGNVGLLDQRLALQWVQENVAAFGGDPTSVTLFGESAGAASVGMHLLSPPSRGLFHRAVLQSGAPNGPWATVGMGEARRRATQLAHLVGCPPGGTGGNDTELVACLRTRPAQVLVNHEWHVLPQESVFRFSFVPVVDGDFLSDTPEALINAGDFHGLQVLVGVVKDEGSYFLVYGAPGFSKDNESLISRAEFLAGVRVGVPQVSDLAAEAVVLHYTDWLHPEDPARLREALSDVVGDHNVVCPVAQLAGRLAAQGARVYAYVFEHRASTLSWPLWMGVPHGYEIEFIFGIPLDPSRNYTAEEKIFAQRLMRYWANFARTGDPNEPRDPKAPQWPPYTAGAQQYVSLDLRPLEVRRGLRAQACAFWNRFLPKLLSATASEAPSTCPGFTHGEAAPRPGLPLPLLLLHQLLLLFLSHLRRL
Structure (SMILES),AChE Inhibition Ex vivo ED50 (AC) (whole brain AChE) [µmol/kg],AChE Inhibition Time to peak activity t (whole brain AChE) [min],pIC50 (MAO-B [1]; [6]),MAO-B Inhibition Ex vivo ED50 (MAO-B [2]),MAO-A Inhibition Ex vivo ED50 (MAO-A [3]),pIC50 ([4]; AChE Inhibition In vitro IC50),pIC50 (MAO-A [5]; [7]),pIC50 (MAO-B [1]; [8]),"Acute Toxicity LD50 (LD) (mice; mouse, in vivo) [µmol/kg]","Therapeutic Ratio LD/AC (mice; mouse, in vivo)",pIC50 (MAO-A [5]; [9]),AChE Inhibition Time to return to 50% of peak t (whole brain AChE) [min],"Acute Toxicity LD50 (LD) (mice; mice, within 6 hours after administration) [µmol/kg]",pIC50 ([4]; read-out: AChE Inhibition In vitro IC50)
C#CCNC1CCc2ccc(OC(=O)N(C)c3ccccc3)cc21 (centres unmarked) [Compound 62],290,60,4.00,>>200 μmoles/kg,>>200 μmoles/kg,6.24,4.10,,,,,,,
C#CCN(C)C1CCc2cccc(OC(=O)N(C)C)c21 (centres unmarked) [Compound 32],7.8,15,,>>20 μmoles/kg,>>20 μmoles/kg,5.43,,3.30,68,9.0,3.72,,,
C#CCNC1CCc2ccc(OC(=O)N(C)CCCC)cc21 (centres unmarked) [Compound 81],40,90,,>>100 μmoles/kg,>>100 μmoles/kg,4.94,,,920,23,,>120,,
C#CCNC1CCc2ccc(OC(=O)N(C)Cc3ccccc3)cc21 (centres unmarked) [Compound 63],140,60 to 90,3.92,>300 µmol/kg,>300 µmol/kg,5.60,4.40,,1300,9.3,,,,
C#CCNC1CCc2c(OC(=O)N(C)CC)cccc21 (centres unmarked) [Compound 35],10,60,,,,5.66,,4.00,33,3.3,> 6.00,,,
C#CCNC1CCc2ccc(OC(=O)N(C)c3ccc(OC)cc3)cc21 (centres unmarked) [Compound 61],47,,3.30,>100 µmol/kg,>100 µmol/kg,6.12,3.15,,,,,,,
C#CCNC1CCc2c(OC(=O)N(C)C)cccc21 (centres unmarked) [Compound 34],0.65,30,,,,7.34,,4.00,3.7,5.7,6.30,,,
CCNC1CCc2ccc(OC(=O)N(C)C)cc21 (centres unmarked) [Compound 7],,,,,,,,< 3.00,,,3.22,,,
CNC1CCc2ccc(OC(=O)N(C)C)cc21 (centres unmarked) [Compound 8],10.0,15 to 30,,>>50 μmoles/kg,>>50 μmoles/kg,,4.30,,,,,>60,87,
C#CCNC1CCc2ccc(OC(=O)NCCC)cc21 (centres unmarked) [Compound 57],70,,4.60,,,,,,,,4.05,,,5.62
C#CCNC1CCc2ccc(OC(=O)N(C)C)cc21 (centres unmarked) [Compound 23],22.4,,,,,,,3.22,255,,3.10,70,,
C#CCN(CC)C1CCc2ccc(OC(=O)N(C)C)cc21 (centres unmarked) [Compound 31],110,,,>100 µmol/kg,>100 µmol/kg,5.00,,< 3.00,,,< 3.00,,,
C#CCNC1CCc2ccc(OC(=O)N(C)C3CCCCC3)cc21 (centres unmarked) [Compound 38],>1000,,5.00,>400 µmol/kg,>400 µmol/kg,4.48,3.77,,,,,,,
